In BindingDB's records for doi:10.1111/j.1476-5381.1995.tb15923.x (Zeneca Pharmaceuticals, 1995):

Molecular target: Adenosine receptor A2a (Rattus norvegicus, UniProt P30543)
Sequence (P30543 whole entry): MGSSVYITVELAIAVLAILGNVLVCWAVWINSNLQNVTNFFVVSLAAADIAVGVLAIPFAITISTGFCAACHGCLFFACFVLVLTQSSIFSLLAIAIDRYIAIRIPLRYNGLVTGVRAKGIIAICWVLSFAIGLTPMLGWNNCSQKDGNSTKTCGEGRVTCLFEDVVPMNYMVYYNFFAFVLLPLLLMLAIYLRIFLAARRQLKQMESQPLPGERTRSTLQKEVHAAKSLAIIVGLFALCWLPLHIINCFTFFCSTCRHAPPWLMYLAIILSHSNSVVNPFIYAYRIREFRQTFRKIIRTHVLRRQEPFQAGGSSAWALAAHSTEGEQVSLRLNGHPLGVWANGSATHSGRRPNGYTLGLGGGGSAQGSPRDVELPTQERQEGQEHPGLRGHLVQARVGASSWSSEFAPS

Ki [µM]	Compound
> 10	Cn1c(=O)c2[nH]c(-c3ccccc3)nc2n(C)c1=O [1,3-Dimethyl-8-phenyl-3,9-dihydro-purine-2,6-dione]
> 10	Cn1c(=O)c2[nH]c(-c3ccc(S(=O)(=O)O)cc3)nc2n(C)c1=O [4-(1,3-Dimethyl-2,6-dioxo-2,3,6,7-tetrahydro-1H-purin-8-yl)-benzenesulfonic acid]
